Laboratory results taken from article PMC10289903 (Investigational New Drugs, 2023).
Read-outs that look alike come from different tables or passages of the source.

Legend:
[1] = test system: patients with locally advanced or metastatic solid tumors
Description: This was a Phase Ib, multicenter, open-label, dose-finding clinical trial (NCT02610075). […] Three types of treatment schedules were investigated: cohorts bid 1, bid 2, qd 1.1, qd 2.1 and qd 3.1 received bid or qd treatment on a 5/9 schedule (5 days on treatment, followed by 9 days off) on a 14-day cycle. Cohorts qd 1.2, qd 2.2, and qd 3.2 received treatment on a 5/2 schedule (5 days on followed by 2 days off for 2 of 3 weeks) in a 21-day cycle. Cohorts qd 2.3 and qd 3.3 received treatment on a weekly 5/2 schedule in a 21-day cycle (Table 1). The highest dose level(s) at which less than one-third of evaluable patients (none of 3 patients or 1 of 6 patients) experienced a dose-limiting toxicity (DLT) was declared the MTD.
DLTs were evaluated during the first 28 days (5/9 schedule) or the first 21 days (5/2 schedule) of treatment.

clinical [2] = details: in vivo
Description: Pre-dose samples were also collected on day 5 of treatment cycle 5.
The slope estimate (β) and corresponding 90% confidence interval (CI) were calculated, where a β estimate of 1 with 90% CI entirely within the bounds of 0.8–1.25 indicated perfect dose proportionality.

[3] = human, in vivo
Description: (§1) Analyses were performed for the bid dosing schedules and RP2D only.
(§2) Water was restricted from 1 h pre-dose until 1 h post-dose, except for the 240 mL of water administered with treatment.
(§3) Natural log-transformed AUC and Cmax were compared between fed/fasted conditions using a mixed effects analysis of variance model, which was fitted separately for each assessed dose. Estimates of the mean difference between treatments and corresponding 90% CI were calculated using a linear mixed effects model with a fixed effect for treatment (fed versus fasted) and a random effect for patients. Back transformed geometric means and 95% CIs were estimated for each condition.

[4] = test system: recurrent uterine serous carcinoma; details: 300 mg qd days 1–5 and 8–12 of a 21-day cycle, monotherapy, cited from earlier work
[5] = test system: platinum-resistant or platinum-refractory recurrent ovarian cancer; details: adavosertib 175 mg qd days 1, 2, 8, 9, 15, 16 of a 28-day cycle with gemcitabine; 95% CI 3.6–6.4; cited from earlier work
[6] = test system: platinum-resistant ovarian cancer; details: adavosertib with carboplatin; cited from earlier work
[7] = test system: recurrent ovarian cancer with progressive disease while receiving PARPi; details: cited from earlier work
clinical [8] = details: human, in vivo
Description: as §1, §2, §3

Q: Which “Maximum tolerated dose (MTD)” value ([1]; bid 5/9 schedule (cohort bid 1)) does the source give for `C=CCn1c(=O)c2cnc(Nc3ccc(N4CCN(C)CC4)cc3)nc2n1-c1cccc(C(C)(C)O)n1` [adavosertib, Adavosertib] here?
A: 125 mg

Q: What about the “DLT nausea, occurrences” value ([1]; human, in vivo) of the same compound?
A: 3 n

Q: What about the “DLT thrombocytopenia, occurrences” value ([1]; human, in vivo) of the same compound?
A: 3 n

Q: What about the “Number of DLTs reported” value ([1]; human, in vivo) of the same compound?
A: 12

Q: And the “Recommended Phase II dose (RP2D)” value ([1]; human, in vivo, 21 days)?
A: 300 mg

Q: What about the “All other DLTs (dehydration, neutropenia, weight decrease, pneumonia, diarrhea, vomiting), occurrences each” value ([1]; in vivo) of the same compound?
A: once

Q: What about the “Maximum tolerated dose (MTD)” value ([1]; qd 5/2 for 2 of 3 weeks (cohort qd 3.2)) of the same compound?
A: 300 mg

Q: What about the “Maximum tolerated dose (MTD)” value ([1]; qd 5/9 schedule (cohort qd 3.1)) of the same compound?
A: 300 mg

Q: What about the “Dose proportionality power model slope β, AUC0–10” value (clinical [2]; human) of the same compound?
A: 1.31

Q: And the “Dose proportionality power model slope β, Cmax” value (clinical [2]; human)?
A: 1.31

Q: What about the half-life (clinical [2]; human, po) of the same compound?
A: 5 to 12 h

Q: What about the “Dose proportionality of systemic exposure” value (clinical [2]) of the same compound?
A: more than dose proportional

Q: What about the “AUC0–10, geometric LS mean (95% CI)” value ([3]; 125 mg) of the same compound?
A: 1658.8 (1017.1, 2705.3) h*nmol/L

Q: And the “AUC0–10, geometric LS mean (95% CI)” value ([3]; 150 mg)?
A: 3228.0 (1698.9, 6133.3) h*nmol/L

Q: And the “AUC0–10, geometric LS mean (95% CI)” value ([3]; 300 mg)?
A: 5340.4 (65.0, 439027.6) h*nmol/L

Q: What about the Cmax ([3]; 300 mg) of the same compound?
A: 819 nM

Q: And the ORR ([4]; 95% CI 15.1–47.5)?
A: 29.4%

Q: And the “Median PFS” value [4]?
A: 6.1 months

Q: What about the PFS [5] of the same compound?
A: 4.6 months

Q: And the Response rate [6]?
A: 66.7%

Q: And the ORR ([7]; adavosertib alone, 90% CI 12–38)?
A: 23%

Q: And the ORR ([7]; combination therapy with PARP inhibitor, 90% CI 16–44)?
A: 29%

Q: And the Cmax (clinical [8]; 125 mg)?
A: 276 nM

Q: What about the Cmax (clinical [8]; 150 mg, Cmax, geometric LS mean (95% CI)) of the same compound?
A: 464 nM
